{"source": "paper PMC12884720", "about": "“Gabpα‐Pparγ Complex Determines Glycolytic Capacity and Lactic Acid Homeostasis in Brown Fat” (Advanced Science, 2025)", "tested_on": "BAT from wild‐type mice", "experiment": "Gene expression (mRNA, protein) in BAT of treated mice", "assay_type": "in vivo, wild‐type C57BL/6J mice", "description": "Reverse transcription of cDNA was completed via the use of 1 µg of RNA with HiScript II Q RT SuperMix for real‐time quantitative PCR (qPCR) (Vazyme Biotech, Nanjing, China, Cat# R222) according to the provided protocols. qPCR was performed with a real‐time PCR system on a QuantStudio1 (Applied Biosystems) using Taq Pro Universal SYBR qPCR Master Mix (Vazyme Biotech., Nanjing, China, Cat# Q712‐02). Relative transcript levels were calculated via the comparative C T method; 36b4 was used as the internal control for cells, whereas Hprt was used as the internal control for tissues. The primer sequences are listed in Table S1 (Supporting Information). The mRNAs from the BAT of control and Gabpα ^Ucp1 KO mice were extracted and subjected to commercial RNA‐seq (BGI Genomics Co., Ltd.) for further DEG and KEGG pathway enrichment analysis. In detail, RNA quality was examined with Fragment (Agilent). High‐quality RNA (RIN > 8.0) was used to library construction. RNA‐seq was performed at BGI Genomics (China) using the Illumina NovaSeq 6000 platform. Clean reads were aligned to the mouse reference genome (GRCm39) using Bowtie2, and transcript quantification was performed with RSEM. […] The RNA‐seq data generated in this study have been deposited in the National Center for Biotechnology Information Sequence Read Archive database under accession code PRJNA1358056.\nCells and tissues were lysed in RIPA lysis buffer (Beyotime, Shanghai, China, Cat# P0013B) containing a protease inhibitor cocktail (MedChem Express, NJ, USA, Cat# HY‐K0010) according to the manufacturer's protocol. Equal amounts of protein were separated on SDS‒PAGE gels and transferred to PVDF membranes (Millipore). The PVDF membranes were blocked in 5% skim milk for 1 h at room temperature and then incubated with primary antibody overnight at 4 °C. The membranes were washed three times with TBST and then incubated with HRP‐conjugated secondary antibodies for 1 h at room temperature. After washing three times, the Western blots were imaged via an enhanced chemiluminescence system.", "note": "Residues, ends and D or L forms follow the SMILES beside them. *: point of attachment. FITC = O=C1OC2(c3ccc(O)cc3Oc3cc(O)ccc32)c2ccc(NC(=S)*)cc21", "data": [{"smiles": "CC[C@H](C)[C@H](NC(=O)[C@H](CCCNC(=N)N)NC(=O)[C@H](CS)NC(=O)[C@H](CC(N)=O)NC(=O)[C@H](CC(C)C)NC(=O)[C@H](CC(=O)O)NC(=O)[C@H](CS)NC(=O)[C@H](CCCNC(=N)N)NC(=O)[C@H](CC(=O)O)NC(=O)[C@H](Cc1ccc(O)cc1)NC(=O)[C@@H](NC(=O)[C@H](CC(C)C)NC(=O)[C@H](CCCCN)NC(=O)[C@H](CC(C)C)NC(=O)[C@H](CCCNC(=N)N)NC(=O)[C@@H](NC(=O)[C@@H](NC(=O)[C@H](CCCNC(=N)N)NC(=O)[C@H](CCCNC(=N)N)NC(=O)[C@H](CCCNC(=N)N)NC(=O)[C@H](CCCNC(=N)N)NC(=O)[C@H](CCCNC(=N)N)NC(=O)[C@H](CCC(N)=O)NC(=O)[C@H](CCCNC(=N)N)NC(=O)[C@H](CCCNC(=N)N)NC(=O)[C@H](CCCCN)NC(=O)[C@H](CCCCN)NC(=O)[C@H](CCCNC(=N)N)NC(=O)CNC(=O)[C@H](Cc1ccc(O)cc1)NC(=S)Nc1ccc2c(c1)C(=O)OC21c2ccc(O)cc2Oc2cc(O)ccc21)[C@@H](C)O)[C@@H](C)CC)[C@@H](C)CC)C(=O)N[C@@H](Cc1c[nH]cn1)C(=O)N[C@@H](CCCCN)C(=O)N[C@@H](CCCCN)C(=O)N[C@@H](CO)C(=O)N[C@@H](CCCNC(=N)N)C(=O)N[C@@H](CC(N)=O)C(=O)N[C@@H](CCCCN)C(=O)O", "note": "[GPCBi] ({FITC}-YGRKKRRQRRRRRTIRLKLIYDRCDLNCRIHKKSRNK-OH; N-terminus and C-terminus assumed)", "values": [{"measurement": "Ldh and Ucp1 expression in BAT", "setting": "GPCBi 5.5 mg kg^−1 in BAT, 23 °C for 7 days then 10 °C for 2 days, mRNA n = 4 (Figure 5e,f)", "result": "effectively downregulated"}, {"measurement": "gene expressions of Eno1, Pkm2, and Ucp1 in BAT", "setting": "GPCBi 5.5 mg kg^−1 orthotopically into BAT, 7 days, control n = 3, GPCBi n = 4 (Figure 4l,m)", "result": "decreased"}, {"measurement": "regulatory gene expression of the futile lipid cycle, BAT", "setting": "GPCBi in BAT, 23 °C for 7 days to 10 °C for 2 days, control n = 4, GPCBi n = 3 (Figure S5a)", "result": "substantially impaired"}]}]}
